Results published in patent US6653339B2, “Method of treating irritable bowel syndrome” (Pfizer Inc., priority 2001, dated 2003).

Legend:
Format in all cases: in vivo, human
[1] = Day 6 plasma concentrations of darifenacin, four-way crossover study in healthy male subjects; conditions: 7.5 mg tid immediate release capsule vs 20 mg SR od matrix tablet, healthy volunteers
[2] = test system: irritable bowel syndrome; assay: Clinical Study 2, controlled (slow) release darifenacin once daily vs placebo in irritable bowel syndrome; conditions: 12 weeks; for Constipation % of patients reporting AEs / Dry Mouth % of patients reporting AEs / Global Rating % Reduction from baseline / Loose Stool % Reduction from baseline / Pain Score % Reduction from baseline / Total AE % of patients reporting AEs / Urgency % Reduction from baseline / Vision % of patients reporting AEs: uncorrected
Excerpt: (§1) The invention may be illustrated by the following clinical studies wherein the treatment of irritable bowel syndrome using darifenacin administered as a once-daily controlled (slow) release formulation in accordance with the prior art is compared with treatment using darifenacin administered as a thrice daily immediate release formulation in accordance with the present invention. Specifically, Clinical Studies 1 and 2 used controlled (slow) release formulations of darifenacin administered once daily (od) and Clinical Study 3 used an immediate release formulation of darifenacin administered three times daily (tid).
(§2) During each clinical study, four efficacy measures of irritable bowel syndrome severity were measured, viz. ‘Pain Score’ (Average daily pain score, a composite of severity and number of days of pain), ‘Loose Stool’ (Number of days on which loose or watery stool occurred), ‘Urgency’ (Number of days on which urgency occured) and so-called ‘Global Rating’ (Patient rating of their condition taking into account all symptoms, 0=no problems). Adverse events (AE) such as constipation, dry mouth and visual abnormalities were also recorded.
Clinical Study 2 was a multi-centre, double-blind, randomised, placebo-controlled parallel group study in which four dose strengths of darifenacin of 3.75 mg, 7.5 mg, 15 mg and 30 mg dosed od were compared with placebo. Treatment lasted 12 weeks following a 2-week run-in period.
(§3) The controlled (slow) release dosage forms of darifenacin used in Clinical Studies 1 and 2 were 3.75 mg, 7.5 mg, 15.0 mg and 30.0 mg tablets having the following compositions: […]

[3] = test system: irritable bowel syndrome; assay: Clinical Study 1, controlled (slow) release darifenacin once daily vs placebo in irritable bowel syndrome; conditions: for Constipation % of patients reporting AEs corrected for placebo / Dry Mouth % of patients reporting AEs corrected for placebo / Global Rating % Reduction from baseline corrected for placebo / Loose Stool % Reduction from baseline corrected for placebo / Pain Score % Reduction from baseline corrected for placebo / Total AE % of patients reporting AEs corrected for placebo / Urgency % Reduction from baseline corrected for placebo / Vision % of patients reporting AEs corrected for placebo / Constipation % of patients reporting AEs / Dry Mouth % of patients reporting AEs / Global Rating % Reduction from baseline / Loose Stool % Reduction from baseline / Pain Score % Reduction from baseline / Total AE % of patients reporting AEs / Urgency % Reduction from baseline / Vision % of patients reporting AEs: Clinical Study 1, 12 weeks; for Constipation % of patients reporting AEs / Dry Mouth % of patients reporting AEs / Global Rating % Reduction from baseline / Loose Stool % Reduction from baseline / Pain Score % Reduction from baseline / Total AE % of patients reporting AEs / Urgency % Reduction from baseline / Vision % of patients reporting AEs: uncorrected
Excerpt: as §1, §2
Clinical Study 1 was a multi-centre, double-blind, randomised, placebo-controlled parallel group study in which three dose strengths of darifenacin of 3.75 mg, 7.5 mg and 15 mg dosed od were compared with placebo. Treatment lasted 12 weeks following a 2-week run-in period.
as §3

[4] = controlled release tablet 3.75 mg od
[5] = controlled release tablet 7.5 mg od
[6] = controlled release tablet 15 mg od
[7] = controlled release tablet 30 mg od
[8] = both controlled release od studies (Clinical Studies 1 and 2)

NC(=O)C(c1ccccc1)(c1ccccc1)[C@@H]1CCN(CCc2ccc3c(c2)CCO3)C1 [darifenacin]
darifenacin plasma concentration (FIG. 1) [1]: periodic ‘peaking’ of the darifenacin plasma concentration above that of the controlled release curve | Constipation % of patients reporting AEs corrected for placebo [2, 4]: 4.5% | Dry Mouth % of patients reporting AEs corrected for placebo [2, 4]: 4.4% | Global Rating % Reduction from baseline corrected for placebo [2, 4]: −7% | Loose Stool % Reduction from baseline corrected for placebo [2, 4]: 8% | Pain Score % Reduction from baseline corrected for placebo [2, 4]: −9% | Total AE % of patients reporting AEs corrected for placebo [2, 4]: 6% | Urgency % Reduction from baseline corrected for placebo [2, 4]: −1% | Vision % of patients reporting AEs corrected for placebo [2, 4]: 0.7% | Constipation % of patients reporting AEs [2, 4]: 6.4% | Dry Mouth % of patients reporting AEs [2, 4]: 9.6% | Global Rating % Reduction from baseline [2, 4]: 21% | Loose Stool % Reduction from baseline [2, 4]: 31% | Pain Score % Reduction from baseline [2, 4]: 28% | Total AE % of patients reporting AEs [2, 4]: 22% | Urgency % Reduction from baseline [2, 4]: 24% | Vision % of patients reporting AEs [2, 4]: 1.3% | Constipation % of patients reporting AEs corrected for placebo [2, 5]: 5.9% | Dry Mouth % of patients reporting AEs corrected for placebo [2, 5]: 4.4% | Global Rating % Reduction from baseline corrected for placebo [2, 5]: −1% | Loose Stool % Reduction from baseline corrected for placebo [2, 5]: 16% | Pain Score % Reduction from baseline corrected for placebo [2, 5]: 0% | Total AE % of patients reporting AEs corrected for placebo [2, 5]: 6% | Urgency % Reduction from baseline corrected for placebo [2, 5]: 8% | Vision % of patients reporting AEs corrected for placebo [2, 5]: 0.6% | Constipation % of patients reporting AEs [2, 5]: 7.8% | Dry Mouth % of patients reporting AEs [2, 5]: 9.6% | Global Rating % Reduction from baseline [2, 5]: 27% | Loose Stool % Reduction from baseline [2, 5]: 39% | Pain Score % Reduction from baseline [2, 5]: 37% | Total AE % of patients reporting AEs [2, 5]: 22% | Urgency % Reduction from baseline [2, 5]: 33% | Vision % of patients reporting AEs [2, 5]: 1.2% | Constipation % of patients reporting AEs corrected for placebo [2, 6]: 11.6% | Dry Mouth % of patients reporting AEs corrected for placebo [2, 6]: 19.8% | Global Rating % Reduction from baseline corrected for placebo [2, 6]: 4% | Loose Stool % Reduction from baseline corrected for placebo [2, 6]: 30% | Pain Score % Reduction from baseline corrected for placebo [2, 6]: 2% | Total AE % of patients reporting AEs corrected for placebo [2, 6]: 15% | Urgency % Reduction from baseline corrected for placebo [2, 6]: 22% | Vision % of patients reporting AEs corrected for placebo [2, 6]: 2.6% | Constipation % of patients reporting AEs [2, 6]: 13.5% | Dry Mouth % of patients reporting AEs [2, 6]: 25% | Global Rating % Reduction from baseline [2, 6]: 32% | Loose Stool % Reduction from baseline [2, 6]: 53% | Pain Score % Reduction from baseline [2, 6]: 39% | Total AE % of patients reporting AEs [2, 6]: 41% | Urgency % Reduction from baseline [2, 6]: 47% | Vision % of patients reporting AEs [2, 6]: 3.2% | Constipation % of patients reporting AEs corrected for placebo [2, 7]: 15.1% | Dry Mouth % of patients reporting AEs corrected for placebo [2, 7]: 30.7% | Global Rating % Reduction from baseline corrected for placebo [2, 7]: 8% | Loose Stool % Reduction from baseline corrected for placebo [2, 7]: 27% | Pain Score % Reduction from baseline corrected for placebo [2, 7]: 3% | Total AE % of patients reporting AEs corrected for placebo [2, 7]: 34% | Urgency % Reduction from baseline corrected for placebo [2, 7]: 26% | Vision % of patients reporting AEs corrected for placebo [2, 7]: 4.6% | Constipation % of patients reporting AEs [2, 7]: 17% | Dry Mouth % of patients reporting AEs [2, 7]: 35.9% | Global Rating % Reduction from baseline [2, 7]: 36% | Loose Stool % Reduction from baseline [2, 7]: 50% | Pain Score % Reduction from baseline [2, 7]: 40% | Total AE % of patients reporting AEs [2, 7]: 50% | Urgency % Reduction from baseline [2, 7]: 41% | Vision % of patients reporting AEs [2, 7]: 5.2% | Constipation % of patients reporting AEs corrected for placebo [3, 4]: 1.4% | Dry Mouth % of patients reporting AEs corrected for placebo [3, 4]: 2.5% | Global Rating % Reduction from baseline corrected for placebo [3, 4]: −2% | Loose Stool % Reduction from baseline corrected for placebo [3, 4]: 4% | Pain Score % Reduction from baseline corrected for placebo [3, 4]: −3% | Total AE % of patients reporting AEs corrected for placebo [3, 4]: 2% | Urgency % Reduction from baseline corrected for placebo [3, 4]: 18% | Vision % of patients reporting AEs corrected for placebo [3, 4]: 5.4% | Constipation % of patients reporting AEs [3, 4]: 7.2% | Dry Mouth % of patients reporting AEs [3, 4]: 10.2% | Global Rating % Reduction from baseline [3, 4]: 27% | Loose Stool % Reduction from baseline [3, 4]: 37% | Pain Score % Reduction from baseline [3, 4]: 35% | Total AE % of patients reporting AEs [3, 4]: 27% | Urgency % Reduction from baseline [3, 4]: 41% | Vision % of patients reporting AEs [3, 4]: 5.4% | Constipation % of patients reporting AEs corrected for placebo [3, 5]: 4.7% | Dry Mouth % of patients reporting AEs corrected for placebo [3, 5]: 6.5% | Global Rating % Reduction from baseline corrected for placebo [3, 5]: 0% | Loose Stool % Reduction from baseline corrected for placebo [3, 5]: 4% | Pain Score % Reduction from baseline corrected for placebo [3, 5]: 5% | Total AE % of patients reporting AEs corrected for placebo [3, 5]: 3% | Urgency % Reduction from baseline corrected for placebo [3, 5]: 17% | Vision % of patients reporting AEs corrected for placebo [3, 5]: 4.3% | Constipation % of patients reporting AEs [3, 5]: 10.5% | Dry Mouth % of patients reporting AEs [3, 5]: 14.2% | Global Rating % Reduction from baseline [3, 5]: 29% | Loose Stool % Reduction from baseline [3, 5]: 37% | Pain Score % Reduction from baseline [3, 5]: 43% | Total AE % of patients reporting AEs [3, 5]: 28% | Urgency % Reduction from baseline [3, 5]: 40% | Vision % of patients reporting AEs [3, 5]: 4.3% | Constipation % of patients reporting AEs corrected for placebo [3, 6]: 9.4% | Dry Mouth % of patients reporting AEs corrected for placebo [3, 6]: 20.8% | Global Rating % Reduction from baseline corrected for placebo [3, 6]: 2% | Loose Stool % Reduction from baseline corrected for placebo [3, 6]: 14% | Pain Score % Reduction from baseline corrected for placebo [3, 6]: 1% | Total AE % of patients reporting AEs corrected for placebo [3, 6]: 15% | Urgency % Reduction from baseline corrected for placebo [3, 6]: 27% | Vision % of patients reporting AEs corrected for placebo [3, 6]: 3.3% | Constipation % of patients reporting AEs [3, 6]: 15.2% | Dry Mouth % of patients reporting AEs [3, 6]: 28.5% | Global Rating % Reduction from baseline [3, 6]: 31% | Loose Stool % Reduction from baseline [3, 6]: 47% | Pain Score % Reduction from baseline [3, 6]: 39% | Total AE % of patients reporting AEs [3, 6]: 40% | Urgency % Reduction from baseline [3, 6]: 50% | Vision % of patients reporting AEs [3, 6]: 3.3% | key measures of Pain Score and Global Rating [3, 8]: no effects were seen | number of adverse effects [3, 8]: marked increase with dose | efficacy measures of Loose Stool and Urgency ([3]; both controlled release od studies (Clinical Studies 1 and 2), higher doses): improvements
